Measurements taken from ChEMBL document CHEMBL1201862, “PubChem BioAssay data set” (2004).
Activity calls are given as the source filed them.

Columns and labels:
[1] = biological target: T1, Aminopeptidase N (Plasmodium falciparum FcB1/Columbia, UniProt O96935); test: P. falciparum M1AAP inhibitors, biochemical, fluorogenic H-Leu-NHMec substrate, 1536-well (AID 1445); design: species or system Plasmodium falciparum 3D7, 3D7
T1 sequence (O96935 whole entry): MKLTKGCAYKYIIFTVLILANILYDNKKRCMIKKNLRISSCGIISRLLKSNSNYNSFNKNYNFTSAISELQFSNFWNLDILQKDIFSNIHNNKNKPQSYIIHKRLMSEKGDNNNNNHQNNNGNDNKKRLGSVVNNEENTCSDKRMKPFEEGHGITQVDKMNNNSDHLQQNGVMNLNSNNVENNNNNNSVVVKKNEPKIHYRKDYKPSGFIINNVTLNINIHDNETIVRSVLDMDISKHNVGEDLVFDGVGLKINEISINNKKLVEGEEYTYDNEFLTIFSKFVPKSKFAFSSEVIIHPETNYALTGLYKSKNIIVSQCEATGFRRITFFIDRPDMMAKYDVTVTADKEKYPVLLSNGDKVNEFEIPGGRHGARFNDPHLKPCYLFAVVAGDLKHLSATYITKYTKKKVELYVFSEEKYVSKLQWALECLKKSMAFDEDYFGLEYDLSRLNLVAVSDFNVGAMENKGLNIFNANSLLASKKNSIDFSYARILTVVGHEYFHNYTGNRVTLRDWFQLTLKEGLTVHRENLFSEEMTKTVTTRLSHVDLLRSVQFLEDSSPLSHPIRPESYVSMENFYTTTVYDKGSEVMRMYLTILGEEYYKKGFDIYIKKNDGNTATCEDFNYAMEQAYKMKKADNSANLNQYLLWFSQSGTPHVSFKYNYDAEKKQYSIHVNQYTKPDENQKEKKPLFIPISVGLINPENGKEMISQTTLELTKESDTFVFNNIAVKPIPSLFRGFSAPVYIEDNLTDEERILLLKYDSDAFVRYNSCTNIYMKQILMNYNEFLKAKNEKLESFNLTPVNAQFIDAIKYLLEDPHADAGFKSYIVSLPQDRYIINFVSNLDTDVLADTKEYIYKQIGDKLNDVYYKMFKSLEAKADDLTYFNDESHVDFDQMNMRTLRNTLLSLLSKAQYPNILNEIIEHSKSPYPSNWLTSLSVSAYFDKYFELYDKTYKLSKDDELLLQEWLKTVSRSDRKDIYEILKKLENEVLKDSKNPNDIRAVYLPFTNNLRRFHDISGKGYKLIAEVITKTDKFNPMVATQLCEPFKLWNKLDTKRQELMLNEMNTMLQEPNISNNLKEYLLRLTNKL

[2] = biological target: Prothrombin (Homo sapiens, UniProt P00734); test: Thrombin 1536 HTS Dose Response Confirmation. [Related pubchem assays: 1046 (Thrombin 1536 HTS; hits were confirmed in this assay)]; format: functional
[3] = biological target: T2, Leucine aminopeptidase (Plasmodium falciparum 3D7, UniProt Q8IL11); test: P. falciparum M17LAP inhibitors, primary screen, biochemical, fluorogenic H-Leu-NHMec substrate, 1536-well (AID 1619); format: functional
T2 sequence (Q8IL11 whole entry): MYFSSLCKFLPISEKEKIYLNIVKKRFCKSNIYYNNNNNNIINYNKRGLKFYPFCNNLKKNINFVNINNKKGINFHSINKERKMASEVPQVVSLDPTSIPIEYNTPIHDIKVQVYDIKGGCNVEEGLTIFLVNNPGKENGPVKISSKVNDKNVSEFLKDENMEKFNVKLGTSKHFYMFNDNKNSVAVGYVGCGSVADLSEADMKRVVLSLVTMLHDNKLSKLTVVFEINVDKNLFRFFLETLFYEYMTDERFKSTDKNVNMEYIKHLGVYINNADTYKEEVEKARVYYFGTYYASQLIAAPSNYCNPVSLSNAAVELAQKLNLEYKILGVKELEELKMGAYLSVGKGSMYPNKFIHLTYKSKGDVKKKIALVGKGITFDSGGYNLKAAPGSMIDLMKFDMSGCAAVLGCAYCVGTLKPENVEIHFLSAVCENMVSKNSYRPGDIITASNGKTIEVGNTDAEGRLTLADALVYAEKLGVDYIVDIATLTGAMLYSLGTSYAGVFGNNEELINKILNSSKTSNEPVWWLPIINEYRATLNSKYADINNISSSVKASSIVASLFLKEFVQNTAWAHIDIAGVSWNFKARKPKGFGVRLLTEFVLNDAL

[4] = biological target: Voltage-dependent T-type calcium channel subunit alpha-1H (Homo sapiens, UniProt O95180); format: functional;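 note: channel activity triggered by adding a high calcium stimulation buffer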
[5] = biological target: T3, Short transient receptor potential channel 4 (Mus musculus, UniProt Q9QUQ5); test: mouse TRPC4 channel activators, dose response, cell-based, HEK293 TRPC4/mu-opioid, Fluo-4 calcium (AID 434937); format: functional
T3 sequence (Q9QUQ5 whole entry): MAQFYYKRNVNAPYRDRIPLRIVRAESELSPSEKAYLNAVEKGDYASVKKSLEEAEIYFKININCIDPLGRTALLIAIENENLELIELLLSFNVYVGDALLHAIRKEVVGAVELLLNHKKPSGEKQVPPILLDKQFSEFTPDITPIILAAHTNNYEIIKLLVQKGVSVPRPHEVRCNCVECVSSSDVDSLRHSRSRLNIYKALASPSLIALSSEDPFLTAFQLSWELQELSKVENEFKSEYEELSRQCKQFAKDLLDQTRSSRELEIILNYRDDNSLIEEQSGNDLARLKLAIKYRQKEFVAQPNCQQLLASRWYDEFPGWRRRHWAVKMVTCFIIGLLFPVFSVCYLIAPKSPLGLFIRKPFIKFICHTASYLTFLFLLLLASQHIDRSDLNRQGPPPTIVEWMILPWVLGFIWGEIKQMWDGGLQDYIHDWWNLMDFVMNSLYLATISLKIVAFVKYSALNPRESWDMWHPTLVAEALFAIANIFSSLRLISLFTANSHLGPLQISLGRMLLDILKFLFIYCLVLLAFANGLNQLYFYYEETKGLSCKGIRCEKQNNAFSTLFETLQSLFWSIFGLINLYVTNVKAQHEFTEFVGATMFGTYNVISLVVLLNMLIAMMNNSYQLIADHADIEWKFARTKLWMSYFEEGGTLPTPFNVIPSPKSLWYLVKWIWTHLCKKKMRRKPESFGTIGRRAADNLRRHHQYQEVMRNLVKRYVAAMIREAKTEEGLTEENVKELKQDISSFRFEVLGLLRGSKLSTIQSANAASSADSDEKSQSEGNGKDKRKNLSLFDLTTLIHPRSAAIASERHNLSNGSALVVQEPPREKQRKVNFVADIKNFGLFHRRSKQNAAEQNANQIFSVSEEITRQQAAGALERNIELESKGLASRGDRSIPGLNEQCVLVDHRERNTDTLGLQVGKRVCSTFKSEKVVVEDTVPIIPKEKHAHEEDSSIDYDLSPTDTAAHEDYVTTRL

[6] = Vero E6 cell cytotoxicity, dose response, cytotoxicity control for non-replicating M. tuberculosis project, secondary assay (AID 492998); format: functional, VeroE6; settings: Vero C1008
[7] = biological target: T4, Protein RecA (Mycobacterium tuberculosis, UniProt P9WHJ3); test: Fluorescence Cell-Free Homogeneous Dose Retest to Identify Inhibitors of RecA-Intein Splicing Activity. [Related pubchem assays (depositor defined):AID2097, AID2223, AID489010, AID492950]; format: functional
T4 sequence (P9WHJ3 whole entry): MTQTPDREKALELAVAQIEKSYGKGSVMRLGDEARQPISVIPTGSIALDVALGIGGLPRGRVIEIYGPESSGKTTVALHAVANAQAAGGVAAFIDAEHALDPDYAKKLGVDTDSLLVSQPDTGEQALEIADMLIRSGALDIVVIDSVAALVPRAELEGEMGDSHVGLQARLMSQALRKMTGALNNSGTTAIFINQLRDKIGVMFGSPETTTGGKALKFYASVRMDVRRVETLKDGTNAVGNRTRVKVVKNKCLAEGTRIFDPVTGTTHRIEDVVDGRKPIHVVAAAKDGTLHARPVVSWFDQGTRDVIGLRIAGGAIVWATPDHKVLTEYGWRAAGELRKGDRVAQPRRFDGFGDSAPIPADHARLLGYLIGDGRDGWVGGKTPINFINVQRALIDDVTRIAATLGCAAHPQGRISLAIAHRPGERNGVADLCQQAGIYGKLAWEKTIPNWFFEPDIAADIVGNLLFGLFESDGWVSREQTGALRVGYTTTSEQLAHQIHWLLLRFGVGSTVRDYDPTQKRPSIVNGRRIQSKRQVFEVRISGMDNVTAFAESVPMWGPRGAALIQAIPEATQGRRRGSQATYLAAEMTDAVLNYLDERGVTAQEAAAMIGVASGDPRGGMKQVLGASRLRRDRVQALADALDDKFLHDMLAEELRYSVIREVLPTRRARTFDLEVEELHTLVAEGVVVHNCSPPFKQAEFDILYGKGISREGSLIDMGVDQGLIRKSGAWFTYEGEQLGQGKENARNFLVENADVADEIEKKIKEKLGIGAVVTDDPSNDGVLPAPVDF

[8] = THP-1 cell cytotoxicity, dose response, cytotoxicity control for non-replicating M. tuberculosis project (AID 489025); format: functional
[9] = biological target: Peroxisome proliferator-activated receptor gamma/Nuclear receptor coactivator 1 (Homo sapiens, UniProt P37231); test: (§1) TR-FRET dose response biochemical High Throughput Screening assay for agonists of the steroid receptor coactivator 1 (SRC-1) recruitment by the peroxisome proliferator-activated receptor gamma (PPAR gamma): non-selective agonists. [Related pubchem assays (depositor defined):AID1300, AID1808, AID504735, AID631]; format: protein assay
[10] = biological target: Peroxisome proliferator-activated receptor gamma/Nuclear receptor coactivator 3 (Homo sapiens, UniProt P37231); test: as §1, with “3 (SRC-3)” for “1 (SRC-1)”, “assays: 1301 (Confirmation screen.), 1048 (Primary screen.)]” for “assays (depositor defined):AID1300, AID1808, AID504735, AID631]”; format: functional
[11] = biological target: Peroxisome proliferator-activated receptor gamma/Nuclear receptor coactivator 2 (Homo sapiens, UniProt P37231); test: TR-FRET dose response biochemical High Throughput Screening assay for agonists of the steroid receptor coactivator 2 (SRC-2) recruitment by the peroxisome proliferator-activated receptor gamma (PPAR gamma): non-selective agonists. [Related pubchem assays: 1297, 1032 ]; format: functional
[12] = cells; format: functional
[13] = Luminescence Cell-Based Dose Confirmation HTS to Identify Inhibitors of Platelet Dense Granule Release. [Related pubchem assays: 1663 (Primary HTS), 1678 (Summary of Project)]; format: functional
[14] = biological target: Luciferin 4-monooxygenase (Photinus pyralis, UniProt P08659); test: firefly luciferase enzyme inhibitors, dose response, biochemical, luminescence (AID 1891)
Luciferin 4-monooxygenase, sequence (P08659 whole entry): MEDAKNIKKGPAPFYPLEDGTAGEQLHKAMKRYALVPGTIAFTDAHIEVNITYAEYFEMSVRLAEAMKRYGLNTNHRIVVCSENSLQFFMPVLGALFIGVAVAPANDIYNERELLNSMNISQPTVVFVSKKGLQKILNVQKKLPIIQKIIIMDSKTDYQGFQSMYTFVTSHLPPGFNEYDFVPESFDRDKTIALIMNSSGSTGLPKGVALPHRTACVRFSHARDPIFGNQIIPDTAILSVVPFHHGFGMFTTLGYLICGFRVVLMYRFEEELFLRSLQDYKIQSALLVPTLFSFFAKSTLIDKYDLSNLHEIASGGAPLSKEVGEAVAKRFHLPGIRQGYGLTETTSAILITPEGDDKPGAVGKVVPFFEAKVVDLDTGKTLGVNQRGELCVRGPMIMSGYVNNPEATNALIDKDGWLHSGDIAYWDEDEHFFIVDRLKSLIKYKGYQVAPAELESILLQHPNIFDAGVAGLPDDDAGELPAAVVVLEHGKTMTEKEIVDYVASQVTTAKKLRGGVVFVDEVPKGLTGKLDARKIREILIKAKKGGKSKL

Voltage-dependent T-type calcium channel subunit alpha-1H, sequence (O95180 whole entry): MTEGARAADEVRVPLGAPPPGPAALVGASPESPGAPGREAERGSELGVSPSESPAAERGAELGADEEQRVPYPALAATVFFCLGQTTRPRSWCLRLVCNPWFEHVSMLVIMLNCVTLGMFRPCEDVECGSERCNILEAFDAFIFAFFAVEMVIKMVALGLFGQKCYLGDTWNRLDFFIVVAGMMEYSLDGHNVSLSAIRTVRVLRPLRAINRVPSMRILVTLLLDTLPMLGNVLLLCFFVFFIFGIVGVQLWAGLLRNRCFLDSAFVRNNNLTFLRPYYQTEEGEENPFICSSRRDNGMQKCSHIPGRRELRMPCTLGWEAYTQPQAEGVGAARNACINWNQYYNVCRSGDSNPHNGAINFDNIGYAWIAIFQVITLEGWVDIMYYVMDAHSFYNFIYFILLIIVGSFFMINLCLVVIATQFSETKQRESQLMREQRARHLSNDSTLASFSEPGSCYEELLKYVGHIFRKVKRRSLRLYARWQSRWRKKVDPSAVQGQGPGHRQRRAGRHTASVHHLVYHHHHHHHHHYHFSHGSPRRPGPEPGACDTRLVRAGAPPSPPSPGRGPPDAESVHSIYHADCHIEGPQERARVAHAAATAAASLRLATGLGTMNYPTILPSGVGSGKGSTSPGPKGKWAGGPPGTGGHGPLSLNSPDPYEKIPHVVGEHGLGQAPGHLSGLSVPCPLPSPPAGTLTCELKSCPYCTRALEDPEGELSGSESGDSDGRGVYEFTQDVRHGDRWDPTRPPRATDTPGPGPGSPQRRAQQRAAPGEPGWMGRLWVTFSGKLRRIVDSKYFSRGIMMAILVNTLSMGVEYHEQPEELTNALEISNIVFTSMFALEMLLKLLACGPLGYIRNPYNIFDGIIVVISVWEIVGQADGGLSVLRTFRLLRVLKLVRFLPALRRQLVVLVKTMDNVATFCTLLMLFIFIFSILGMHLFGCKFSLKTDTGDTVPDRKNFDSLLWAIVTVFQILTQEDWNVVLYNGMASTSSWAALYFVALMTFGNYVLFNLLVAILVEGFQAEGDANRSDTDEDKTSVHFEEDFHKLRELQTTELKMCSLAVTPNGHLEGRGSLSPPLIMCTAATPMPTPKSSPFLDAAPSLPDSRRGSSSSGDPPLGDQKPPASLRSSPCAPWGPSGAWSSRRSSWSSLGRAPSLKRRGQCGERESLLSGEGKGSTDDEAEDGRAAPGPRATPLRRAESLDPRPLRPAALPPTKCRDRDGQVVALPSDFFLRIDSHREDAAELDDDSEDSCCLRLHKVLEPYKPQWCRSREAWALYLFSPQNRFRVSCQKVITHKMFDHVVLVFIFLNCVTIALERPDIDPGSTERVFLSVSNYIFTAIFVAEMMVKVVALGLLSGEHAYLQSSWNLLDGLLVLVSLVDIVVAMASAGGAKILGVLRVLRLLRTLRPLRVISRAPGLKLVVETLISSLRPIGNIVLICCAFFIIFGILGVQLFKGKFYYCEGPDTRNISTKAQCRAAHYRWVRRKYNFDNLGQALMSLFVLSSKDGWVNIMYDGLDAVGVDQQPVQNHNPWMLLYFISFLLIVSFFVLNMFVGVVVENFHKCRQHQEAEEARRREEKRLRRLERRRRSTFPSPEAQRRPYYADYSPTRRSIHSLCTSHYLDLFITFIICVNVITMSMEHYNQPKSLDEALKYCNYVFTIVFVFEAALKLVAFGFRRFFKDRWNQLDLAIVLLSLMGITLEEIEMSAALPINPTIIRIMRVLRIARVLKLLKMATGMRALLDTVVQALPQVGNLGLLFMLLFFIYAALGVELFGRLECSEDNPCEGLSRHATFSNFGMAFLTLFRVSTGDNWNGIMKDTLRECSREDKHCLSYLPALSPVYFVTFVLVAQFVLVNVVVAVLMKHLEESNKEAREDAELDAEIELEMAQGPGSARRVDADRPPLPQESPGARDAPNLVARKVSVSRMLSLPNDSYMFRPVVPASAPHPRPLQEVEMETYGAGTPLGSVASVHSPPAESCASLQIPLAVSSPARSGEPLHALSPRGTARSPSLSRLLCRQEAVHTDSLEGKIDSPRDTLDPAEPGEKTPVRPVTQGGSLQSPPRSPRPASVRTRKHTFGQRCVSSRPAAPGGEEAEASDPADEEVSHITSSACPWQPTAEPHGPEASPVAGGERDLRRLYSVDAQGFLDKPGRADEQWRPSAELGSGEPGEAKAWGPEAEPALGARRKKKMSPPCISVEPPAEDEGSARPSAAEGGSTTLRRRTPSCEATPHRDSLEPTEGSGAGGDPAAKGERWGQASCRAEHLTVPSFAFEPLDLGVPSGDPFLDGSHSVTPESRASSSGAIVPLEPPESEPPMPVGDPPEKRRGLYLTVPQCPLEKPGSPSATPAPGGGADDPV
Peroxisome proliferator-activated receptor gamma/Nuclear receptor coactivator 2, sequence (P37231 whole entry): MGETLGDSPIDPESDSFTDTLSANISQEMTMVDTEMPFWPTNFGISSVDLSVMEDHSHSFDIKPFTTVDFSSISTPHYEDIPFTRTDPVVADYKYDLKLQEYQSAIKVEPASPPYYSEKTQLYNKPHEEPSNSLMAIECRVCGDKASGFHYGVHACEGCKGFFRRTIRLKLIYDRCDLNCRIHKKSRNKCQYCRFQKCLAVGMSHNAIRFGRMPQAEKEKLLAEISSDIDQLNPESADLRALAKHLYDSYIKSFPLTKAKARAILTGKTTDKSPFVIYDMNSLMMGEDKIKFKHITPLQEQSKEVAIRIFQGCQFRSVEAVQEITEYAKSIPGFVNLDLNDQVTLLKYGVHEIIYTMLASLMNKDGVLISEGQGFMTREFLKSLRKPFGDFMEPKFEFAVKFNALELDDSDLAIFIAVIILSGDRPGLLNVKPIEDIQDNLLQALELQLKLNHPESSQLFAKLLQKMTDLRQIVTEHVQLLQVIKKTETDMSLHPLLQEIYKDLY
Peroxisome proliferator-activated receptor gamma/Nuclear receptor coactivator 2, sequence (Q15596 whole entry, further chain): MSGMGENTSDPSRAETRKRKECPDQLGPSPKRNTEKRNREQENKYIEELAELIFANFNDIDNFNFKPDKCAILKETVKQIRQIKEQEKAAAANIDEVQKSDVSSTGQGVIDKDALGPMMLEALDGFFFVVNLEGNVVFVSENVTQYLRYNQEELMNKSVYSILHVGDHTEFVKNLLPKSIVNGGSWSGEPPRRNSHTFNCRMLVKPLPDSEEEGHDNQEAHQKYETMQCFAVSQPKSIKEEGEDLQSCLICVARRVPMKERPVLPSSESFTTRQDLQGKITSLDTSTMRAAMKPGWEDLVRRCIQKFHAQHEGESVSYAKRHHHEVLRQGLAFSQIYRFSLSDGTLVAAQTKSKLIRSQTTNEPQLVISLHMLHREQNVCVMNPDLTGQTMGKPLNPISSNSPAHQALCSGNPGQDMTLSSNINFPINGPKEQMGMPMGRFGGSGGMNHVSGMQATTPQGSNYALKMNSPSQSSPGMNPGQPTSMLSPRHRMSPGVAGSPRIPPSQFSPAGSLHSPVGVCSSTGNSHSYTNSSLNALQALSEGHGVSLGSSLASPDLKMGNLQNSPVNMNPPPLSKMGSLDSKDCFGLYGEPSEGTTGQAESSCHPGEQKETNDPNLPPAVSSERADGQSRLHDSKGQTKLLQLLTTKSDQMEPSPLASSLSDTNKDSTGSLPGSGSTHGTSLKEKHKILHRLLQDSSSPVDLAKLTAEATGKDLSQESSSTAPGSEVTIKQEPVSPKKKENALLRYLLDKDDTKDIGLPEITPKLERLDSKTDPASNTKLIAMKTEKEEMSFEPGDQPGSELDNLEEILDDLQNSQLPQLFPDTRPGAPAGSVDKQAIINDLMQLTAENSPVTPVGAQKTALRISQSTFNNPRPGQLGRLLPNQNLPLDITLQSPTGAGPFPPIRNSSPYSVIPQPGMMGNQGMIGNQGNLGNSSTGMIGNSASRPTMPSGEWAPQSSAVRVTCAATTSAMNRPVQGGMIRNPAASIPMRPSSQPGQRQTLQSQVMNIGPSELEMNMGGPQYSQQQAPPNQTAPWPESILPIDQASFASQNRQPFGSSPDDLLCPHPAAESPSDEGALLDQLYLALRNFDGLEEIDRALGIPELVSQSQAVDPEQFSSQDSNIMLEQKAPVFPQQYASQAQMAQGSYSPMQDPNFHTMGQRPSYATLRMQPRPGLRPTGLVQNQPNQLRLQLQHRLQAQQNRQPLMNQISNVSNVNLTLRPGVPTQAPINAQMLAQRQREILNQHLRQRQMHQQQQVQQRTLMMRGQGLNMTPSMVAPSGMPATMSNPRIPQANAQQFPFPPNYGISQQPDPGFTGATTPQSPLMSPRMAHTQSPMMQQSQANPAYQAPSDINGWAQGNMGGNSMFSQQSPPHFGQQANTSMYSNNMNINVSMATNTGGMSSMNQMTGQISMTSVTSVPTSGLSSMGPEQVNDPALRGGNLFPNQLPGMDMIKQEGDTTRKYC

## CCC(C)(C)NC(=O)CN(Cc1ccc2c(c1)OCO2)C(=O)CCC(=O)Nc1nccs1
[1]
  IC50: 87.6 µM (active)

## O=C(CN1C(=O)C2CCCCN2C(=O)c2ccccc21)N1CCCc2ccccc21 (centres undefined)
[1]
  IC50: 103 µM (active)

## Cc1ccccc1NC(=O)CCl
[2]
  IC50: > 50 µM (not active)

## CCc1cc2cc3c(cc2nc1SCC(=O)Nc1cc(OC)c(OC)cc1C(=O)O)OCO3
[1]
  IC50: 76 µM (active)
[3]
  IC50: < 1 µM (active)

## Cc1cccc(N2CCN(C(=O)C(Cc3ccccc3)n3cccc3)CC2)c1C (centres undefined)
[4]
  EC50: 8.08 µM (active)

## O=C(CNS(=O)(=O)c1ccc2ccccc2c1)NCCc1ccccn1
[5]
  EC50: 9.44 µM (active)

## O=[N+]([O-])c1cncc([N+](=O)[O-])c1Nc1cccc(O)c1
[6]
  CC50: 15.7 µM (active)
[7]
  EC50: 3.28 µM (active)
[8]
  CC50: 27 µM (active)

## O=C(Nc1ccccc1C(F)(F)F)c1ccc(CN2CCC(Cc3ccccc3)CC2)cc1
[4]
  EC50: 0.227 µM (active)

## COc1ccc(C)c2sc(NC(=O)CCS(=O)(=O)c3ccccc3)nc12
[6]
  CC50: > 20 µM (active)
[8]
  CC50: 23.1 µM (active)

## CCn1cc(C(=O)NCc2ccc3c(c2)OCO3)c(=O)c2cc(S(=O)(=O)N3CCOCC3)ccc21
[2]
  IC50: 0.158 µM (active)

## COc1cc(OC)cc(C(=O)NC2CCCN(Cc3ccc(Cl)cc3)C2)c1 (centres undefined)
[5]
  EC50: 5.96 µM (active)

## CCn1c(=O)cc(SCC(=O)N2CCN(c3ccccn3)CC2)c2ccccc21
[9]
  EC50: > 79.4 µM (inactive)
[10]
  EC50: > 79.4 µM (not active)
[11]
  EC50: > 79.4 µM (not active)

## Cc1ccc(Cn2c(SCCN3CCCCC3)nc3c2c(=O)n(C)c(=O)n3C)cc1
[5]
  EC50: 11.9 µM (active)

## COc1cc(NC(=O)C2COc3ccccc3O2)c(OC)cc1Cl (centres undefined)
[4]
  EC50: 8.09 µM (active)

## CCc1cc2cc(C(=O)Nc3ccc(F)cc3)sc2s1
[9]
  EC50: > 79.4 µM (inactive)
[10]
  EC50: > 79.4 µM (not active)
[11]
  EC50: 57.1 µM (not active)

## Cc1ccc(-c2ccc(/C=N/NC(=O)CN3CCOCC3)o2)cc1[N+](=O)[O-]
[12]
  IC50: 22.5 µM (active)
[8]
  CC50: > 40 µM (active)

## Oc1ccc(-c2nc3ccccc3s2)cc1
[13]
  EC50: 47.5 µM (active)
[2]
  IC50: > 50 µM (not active)
[14]
  EC50: 1.26 µM (active)

## Cn1c(N2CCNCC2)nc2ccccc21
[5]
  EC50: 0.149 µM (active)
